Assay results reported in ChEMBL document CHEMBL3885861, “Open TG-GATES”.

Organism: Rattus norvegicus
Test: Open TG-GATES - Regimen: Single
Type: toxicity, organism-based, Sprague-Dawley
Set-up: regimen Single, gender Male, age 6 weeks
Conditions: in vivo, po, 15 mg/kg, route gavage, dose level Low; for APTT / Bas / Eos / Fbg / Hb / Ht / Lym / MCH / MCHC / MCV / Mono / Neu / PT / Plat / RBC / Ret / WBC: tissue Blood; for KIDNEY_L / KIDNEY_R / KIDNEY_TOTAL: tissue Kidney; for LIVER: tissue Liver; for A/G / ALP / ALT / AST / BUN / CRE / Ca / Cl / DBIL / GLC / IP / K / LDH / Na / PL / RALB / TBIL / TC / TG / TP / gamma-GTP: tissue Plasma

SMILES: S=C=Nc1cccc2ccccc12 [1-NAPHTHYLISOTHIOCYANATE]
- TERMINAL_BW (3 h): 226 g
- APTT (3 h): 18.2 s
- Bas (3 h): 0.2%
- Eos (3 h): 0.8%
- Fbg (3 h): 233 mg/dL
- Hb (3 h): 13.7 g/dL
- Ht (3 h): 38.1%
- Lym (3 h): 75.2%
- MCH (3 h): 22 pg
- MCHC (3 h): 35.8%
- MCV (3 h): 61.5 fL
- Mono (3 h): 3%
- Neu (3 h): 20%
- PT (3 h): 11.7 s
- Plat (3 h): 119.1 x10_4/uL
- RBC (3 h): 622.2 x10_4/ul
- Ret (3 h): 8.4%
- WBC (3 h): 91.8 x10_2/uL
- KIDNEY_L (3 h): 1 g
- KIDNEY_R (3 h): 1 g
- KIDNEY_TOTAL (3 h): 2 g
- LIVER (3 h): 10.2 g
- A/G (3 h): 1.6
- ALP (3 h): 1037.2 IU/L
- ALT (3 h): 42.2 IU/L
- AST (3 h): 75 IU/L
- BUN (3 h): 10.6 mg/dL
- CRE (3 h): 0.4 mg/dL
- Ca (3 h): 10.8 mg/dL
- Cl (3 h): 103.8 meq/L
- DBIL (3 h): 0.1 mg/dL
- GLC (3 h): 220.4 mg/dL
- IP (3 h): 10 mg/dL
- K (3 h): 4.1 meq/L
- LDH (3 h): 199.8 IU/L
- Na (3 h): 142 meq/L
- PL (3 h): 159.4 mg/dL
- RALB (3 h): 3.4 g/dL
- TBIL (3 h): 0.1 mg/dL
- TC (3 h): 75.2 mg/dL
- TG (3 h): 135.2 mg/dL
- TP (3 h): 5.6 g/dL
- gamma-GTP (3 h): 0.8 IU/L
- TERMINAL_BW (6 h): 220 g
- APTT (6 h): 18.5 s
- Bas (6 h): 0%
- Eos (6 h): 0.8%
- Fbg (6 h): 243.4 mg/dL
- Hb (6 h): 13.8 g/dL
- Ht (6 h): 38.6%
- Lym (6 h): 75.2%
- MCH (6 h): 21.8 pg
- MCHC (6 h): 35.7%
- MCV (6 h): 60.9 fL
- Mono (6 h): 3.2%
- Neu (6 h): 19.8%
- PT (6 h): 11.8 s
- Plat (6 h): 120.7 x10_4/uL
- RBC (6 h): 634.6 x10_4/ul
- Ret (6 h): 7%
- WBC (6 h): 100.7 x10_2/uL
- KIDNEY_L (6 h): 1 g
- KIDNEY_R (6 h): 1 g
- KIDNEY_TOTAL (6 h): 1.9 g
- LIVER (6 h): 9.6 g
- A/G (6 h): 1.7
- ALP (6 h): 1074.4 IU/L
- ALT (6 h): 32.4 IU/L
- AST (6 h): 68.2 IU/L
- BUN (6 h): 8 mg/dL
- CRE (6 h): 0.4 mg/dL
- Ca (6 h): 10.5 mg/dL
- Cl (6 h): 103.8 meq/L
- DBIL (6 h): 0.1 mg/dL
- GLC (6 h): 235.8 mg/dL
- IP (6 h): 10 mg/dL
- K (6 h): 4.1 meq/L
- LDH (6 h): 196 IU/L
- Na (6 h): 141.6 meq/L
- PL (6 h): 140.2 mg/dL
- RALB (6 h): 3.5 g/dL
- TBIL (6 h): 0.1 mg/dL
- TC (6 h): 77 mg/dL
- TG (6 h): 61 mg/dL
- TP (6 h): 5.6 g/dL
- gamma-GTP (6 h): 1.2 IU/L
- TERMINAL_BW (9 h): 215.5 g
- APTT (9 h): 18 s
- Bas (9 h): 0.2%
- Eos (9 h): 0.8%
- Fbg (9 h): 237 mg/dL
- Hb (9 h): 13.6 g/dL
- Ht (9 h): 38.1%
- Lym (9 h): 74.8%
- MCH (9 h): 21.5 pg
- MCHC (9 h): 35.6%
- MCV (9 h): 60.5 fL
- Mono (9 h): 2.4%
- Neu (9 h): 20.8%
- PT (9 h): 12.1 s
- Plat (9 h): 122.9 x10_4/uL
- RBC (9 h): 631.6 x10_4/ul
- Ret (9 h): 7.1%
- WBC (9 h): 92.1 x10_2/uL
- KIDNEY_L (9 h): 1 g
- KIDNEY_R (9 h): 0.9 g
- KIDNEY_TOTAL (9 h): 1.9 g
- LIVER (9 h): 8.7 g
- A/G (9 h): 1.7
- ALP (9 h): 1018.2 IU/L
- ALT (9 h): 35.8 IU/L
- AST (9 h): 72 IU/L
- BUN (9 h): 10.4 mg/dL
- CRE (9 h): 0.4 mg/dL
- Ca (9 h): 10.4 mg/dL
- Cl (9 h): 104 meq/L
- DBIL (9 h): 0.092 mg/dL
- GLC (9 h): 223 mg/dL
- IP (9 h): 10.1 mg/dL
- K (9 h): 3.8 meq/L
- LDH (9 h): 157.4 IU/L
- Na (9 h): 142.2 meq/L
- PL (9 h): 134.2 mg/dL
- RALB (9 h): 3.6 g/dL
- TBIL (9 h): 0.1 mg/dL
- TC (9 h): 73.2 mg/dL
- TG (9 h): 34.8 mg/dL
- TP (9 h): 5.7 g/dL
- gamma-GTP (9 h): 1 IU/L
- TERMINAL_BW (24 h): 232.5 g
- APTT (24 h): 17.6 s
- Bas (24 h): 0.4%
- Eos (24 h): 0.8%
- Fbg (24 h): 217.8 mg/dL
- Hb (24 h): 13.9 g/dL
- Ht (24 h): 38.5%
- Lym (24 h): 80%
- MCH (24 h): 21.9 pg
- MCHC (24 h): 36%
- MCV (24 h): 60.8 fL
- Mono (24 h): 2%
- Neu (24 h): 16%
- PT (24 h): 11.9 s
- Plat (24 h): 122.9 x10_4/uL
- RBC (24 h): 633.6 x10_4/ul
- Ret (24 h): 6.5%
- WBC (24 h): 106 x10_2/uL
- KIDNEY_L (24 h): 1 g
- KIDNEY_R (24 h): 1 g
- KIDNEY_TOTAL (24 h): 2 g
- LIVER (24 h): 10.3 g
- A/G (24 h): 1.6
- ALP (24 h): 1064.4 IU/L
- ALT (24 h): 39.8 IU/L
- AST (24 h): 73.6 IU/L
- BUN (24 h): 15.6 mg/dL
- CRE (24 h): 0.4 mg/dL
- Ca (24 h): 10.6 mg/dL
- Cl (24 h): 103.8 meq/L
- DBIL (24 h): 0.068 mg/dL
- GLC (24 h): 198 mg/dL
- IP (24 h): 7.3 mg/dL
- K (24 h): 3.8 meq/L
- LDH (24 h): 209.4 IU/L
- Na (24 h): 141.6 meq/L
- PL (24 h): 131 mg/dL
- RALB (24 h): 3.4 g/dL
- TBIL (24 h): 0.1 mg/dL
- TC (24 h): 67.4 mg/dL
- TG (24 h): 84.2 mg/dL
- TP (24 h): 5.5 g/dL
- gamma-GTP (24 h): 1.6 IU/L
